Marks after values point to notes of the source that are not given here.
Tests used:
[1] = Apparent (surface) pKa of the LNP formulation (TNS assay); type: physicochemical; conditions: for Apparent pKa: Table 3G
Outline: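 Fluorescence of TNS probe added to LNP samples (mRNA 0.04 mg/mL) was read across 21 buffers of pH about 3-12, triplicate per pH. The inflection point of the sigmoidal fluorescence-vs-pH curve, […], gives apparent pKa; method validated in 1× PBS and Tris/sucrose buffer.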

luciferase mRNA = experiment: Luciferase expression after subcutaneous administration to mice; type: in vivo, female CD-1 mice; conditions: for Novel lipid/MC3 expression ratio, 6 hr. time point, s.c. Luc 0.5 mpk / Novel lipid/MC3 expression ratio, s.c. Luc 0.5 mpk (AUC): relative to MC3; for Novel lipid/MC3 expression ratio, 6 hr. time point, s.c. Luc 0.5 mpk / Novel lipid/MC3 expression ratio, s.c. Luc 0.5 mpk (AUC) / Lipid/MC3 AUC ratio / AUC (luciferase expression): 0.5 mpk; for Lipid/MC3 AUC ratio: luciferase; for AUC (luciferase expression): whole body BLI; for Novel lipid/MC3 ratio, s.c. Luc 6 hr.: relative to MC3, Table 3G
Outline: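 Female CD-1 mice given luciferase mRNA in lipid nanoparticle formulations subcutaneously at 0.5 mpk. Expression read by whole-body bioluminescence imaging at 3, 6 and 24 h, with ex vivo liver, spleen and injection-site luminescence at 24 h.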

hEPO mRNA = experiment: hEPO expression after intramuscular administration to mice; type: in vivo; conditions: for Fold increase in hEPO concentration relative to MC3: mice, 0.01 mpk, 6 hr time point; for Novel lipid/MC3 expression ratio, 6 hr. time point, i.m. hEPO: relative to MC3 formulation; for Novel lipid/MC3 ratio, 6 hr. timepoint, i.m. hEPO: relative to MC3, Table 3G
Method: The expression of hEPO and cytokine induction in mice intravenously administered a nanoparticle composition at a dose of 0.5 mpk were measured at 3, 6, and 24 hours. […] The expression of hEPO in mice intramuscularly administered a nanoparticle composition from Table 1B at a dose of 0.01 mpk were measured at 3, 6, and 24 hours.
Blood collection and analysis for hEPO. Blood was collected from mice or rats via the tail vein and hEPO concentrations were determined using a hEPO ELISA assay.

[2] = Encapsulation efficiency of RNA (QUANT-IT RIBOGREEN RNA assay); type: physicochemical; conditions: for % Encapsulation: lipid nanoparticle, ±SD within one assay run (Table 37)
Outline: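 RiboGreen fluorescence (ex ~480, em ~520 nm) compared between intact samples and Triton X-100-lysed samples after 15 min at 37 °C in TE buffer, pH 7.5. Percent free RNA is the blank-corrected intact/disrupted ratio.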

[3] = Particle size and polydispersity index of nanoparticle compositions (Zetasizer Nano ZS); type: physicochemical; conditions: for PDI (Polydispersity index): lipid nanoparticle, ±SD within one assay run (Table 37)
Outline: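 Measured in 1×PBS by Zetasizer Nano ZS.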

[4] = Chemical stability of lipids in ethanol (lipid purity); type: physicochemical
Method: Ester linkages were previously reported to trigger metabolism by esterases in vivo. (See Fukami, T. et al. Drug Metab. Pharmacokinet. 2012, 27, 466-477, the content of which is incorporated by reference herein in its entirety). […] (See Maier M. A., Mol. Ther. 2013, 21, 1570-1578, the content of which is incorporated herein in its entirety) First, the chemical stability of the lipids was evaluated by measuring ethanol stability at room temperature and 37° C. (Table 39). […] LNPs formed with compound 138 were larger, with a surface pKa>7. […] Removal of one ester function (compound 136) afforded LNPs with improved physiochemical characteristics and lower LNP surface pKa.

[5] = Lipid clearance: lipid level in mouse liver tissue (LC-MS/MS); type: in vivo
sC5b-9 = experiment: Complement activation in vitro (sC5b-9 levels); type: cell-based; conditions: human cells contacted in vitro
Method: Complement activation assists in the clearance of pathogens from an organism. As it is undesirable that a subject's body recognize a nanoparticle composition as a foreign invader, low complement system activation upon administration of such a composition is preferred. The complex sC5b-9 is a marker for the activation of the complement system. Thus, human cells were contacted in vitro with nanoparticle compositions according to Table 1A and were evaluated for sC5b-9 levels.

[6] = Table 1B, formulated with hEPO mRNA
[7] = Table 1D, for subcutaneous administration, # formulated with hEPO mRNA
[8] = Table 1E, compositions for subcutaneous administration
[9] = Table 1A, lipid:DSPC:cholesterol:PEG-DMG 50:10:38.5:1.5 mol %
[10] = Table 1C, compositions for subcutaneous administration
[11] = lipid nanoparticle, ±SD within one assay run (Table 37)
[12] = nanoparticle composition with hEPO mRNA (Table 30)

| pKa ([1]; Table 1A) | EE (%) ([2]; Table 1A) | EE (%) [2, 6] | % EE [2, 8] | PDI ([3]; Table 1A) | Size (nm) [3, 9] | PDI [3, 6] | Size (nm) [3, 6] | PDI [3, 8] | Size (nm) [3, 8] | Apparent pKa [1] | % EE [2, 10] | SMILES | Novel lipid/MC3 expression ratio, 6 hr. time point, s.c. Luc 0.5 mpk (luciferase mRNA) | Fold increase in hEPO concentration relative to MC3 (hEPO mRNA) | Novel lipid/MC3 expression ratio, 6 hr. time point, i.m. hEPO (hEPO mRNA) | Novel lipid/MC3 expression ratio, s.c. Luc 0.5 mpk (AUC) (luciferase mRNA) | Lipid/MC3 AUC ratio (luciferase mRNA) | AUC (luciferase expression) (luciferase mRNA) | Novel lipid/MC3 ratio, s.c. Luc 6 hr. (luciferase mRNA) | Novel lipid/MC3 ratio, 6 hr. timepoint, i.m. hEPO (hEPO mRNA) | further results |
| --- | --- | --- | --- | --- | --- | --- | --- | --- | --- | --- | --- | --- | --- | --- | --- | --- | --- | --- | --- | --- | --- |
| 7.13 | 76.8% | 91.23% | 88% | 0.22 | 116.7 nm | 0.13 | 93.3 nm | 0.16 | 88.9 nm | – | – | CCCCCCCCCOC(=O)CCCCCCCN(CCCCCCCC(=O)OC(CCCCCCCC)CCCCCCCC)CCCNC(=S)N(C)C [Compound 111, Heptadecan-9-yl 8-((3-(3,3-dimethylthioureido)propyl)(8-(nonyloxy)-8-oxooctyl)amino)octanoate] | 1.16 | 10.6 | 10.6 | – | – | – | – | – | % EE [2, 7]: 90.9%; PDI [3, 7]: 0.12; Size (nm) [3, 7]: 94.5 nm |
| 6.83 | 98.2% | 96.27% | – | 0.09 | 69.3 nm | 0.12 | 70.2 nm | – | – | 6.83 | 94.8% | CCCCCCCCC(C)OC(=O)CCCCCN(CCO)CCCCCCCC(=O)OC(CCCCCCCC)CCCCCCCC (stereo not shown) [Compound 122, Heptadecan-9-yl 8-((6-(decan-2-yloxy)-6-oxohexyl)(2-hydroxyethyl)amino)octanoate] | – | 10.7 | 10.7 | (AUC: 3.42) | 3.42 | 5.8576E+10 (p/s) * h | 4.12 | 10.7 | PDI [3, 10]: 0.16; Size (nm) [3, 10]: 80.2 nm |
| 7.17 | 96% | 95.38% | 96% | 0.14 | 119 nm | 0.22 | 89.6 nm | 0.15 | 96.1 nm | – | – | CCCCCCCCCOC(=O)CCCCCCCN(CCCCCCCC(=O)OC(CCCCCCCC)CCCCCCCC)CCCNC(C)=O [Compound 108, Heptadecan-9-yl 8-((3-acetamidopropyl)(8-(nonyloxy)-8-oxooctyl)amino)octanoate] | 0.22 | 3.7 | – | – | – | – | – | – | – |
| 7.78 | 99.0% | 96.40% | – | 0.22 | 83.7 nm | 0.21 | 60.6 nm | – | – | 7.78 | 99.0% | CCCCCCCCCOC(=O)CCCCCCCN(CCCCCCCC(=O)OC(CCCCCCCC)CCCCCCCC)CCCNC(=O)NC [Compound 112, Heptadecan-9-yl 8-((3-(3-methylureido)propyl)(8-(nonyloxy)-8-oxooctyl)amino)octanoate] | – | 1.6 | – | (AUC: 1.19) | 1.19 | 2.0339E+10 (p/s) * h | 1.33 | 1.6 | PDI [3, 10]: 0.22; Size (nm) [3, 10]: 83.7 nm |
| 6.78 | 98.6% | 98.29% | 98% | 0.13 | 81.1 nm | 0.099 | 75 nm | 0.10 | 67.0 nm | – | – | CCCCCCCCCOC(=O)CCCCCCCN(CCCCCCCC(=O)OC(CCCCCCCC)CCCCCCCC)CCCNS(C)(=O)=O [Compound 109, Heptadecan-9-yl 8-((3-(methylsulfonamido)propyl)(8-(nonyloxy)-8-oxooctyl)amino)octanoate] | 0.49 | 5.3 | – | – | – | – | – | – | – |
| 6.73 | 97.6% | 95.20% | 88% | 0.12 | 95.1 nm | 0.15 | 88.9 nm | 0.12 | 93.3 nm | – | – | CCCC/C=C\CCC(CC/C=C\CCCC)OC(=O)CCCCCCCN(CCO)CCCCCCCC(=O)OCCCCCCCCC [Compound 60, (5Z,12Z)-Heptadeca-5,12-dien-9-yl 8-((2-hydroxyethyl)(8-(nonyloxy)-8-oxooctyl)amino)octanoate] | 1.72 | 11.2 | 11.2 | – | – | – | – | – | % EE [2, 7]: 93.0%; PDI [3, 7]: 0.13; Size (nm) [3, 7]: 87.4 nm |
| 8.03 | 91.9% | 92.39% | – | 0.21 | 91.5 nm | 0.24 | 73.3 nm | – | – | 8.03 | 91.9% | CCCCCCCCCOC(=O)CCCCCCCN(CCCCCCCC(=O)OC(CCCCCCCC)CCCCCCCC)CCCNC(=O)N(C)C [Compound 110, Heptadecan-9-yl 8-((3-(3,3-dimethylureido)propyl)(8-(nonyloxy)-8-oxooctyl)amino)octanoate] | – | 1.2 | – | (AUC: 0.76) | 0.76 | 1.2968E+10 (p/s) * h | 0.78 | 1.2 | PDI [3, 10]: 0.21; Size (nm) [3, 10]: 91.5 nm |

| SMILES | pKa ([1]; Table 1A) | EE (%) ([2]; Table 1A) | EE (%) [2, 6] | % EE [2, 8] | PDI ([3]; Table 1A) | Size (nm) [3, 9] | PDI [3, 6] | Size (nm) [3, 6] | PDI [3, 8] | Size (nm) [3, 8] | Apparent pKa [1] | % EE [2, 10] | Novel lipid/MC3 expression ratio, 6 hr. time point, s.c. Luc 0.5 mpk (luciferase mRNA) | Fold increase in hEPO concentration relative to MC3 (hEPO mRNA) | Novel lipid/MC3 expression ratio, 6 hr. time point, i.m. hEPO (hEPO mRNA) | Novel lipid/MC3 expression ratio, s.c. Luc 0.5 mpk (AUC) (luciferase mRNA) | Lipid/MC3 AUC ratio (luciferase mRNA) | AUC (luciferase expression) (luciferase mRNA) | Novel lipid/MC3 ratio, s.c. Luc 6 hr. (luciferase mRNA) | Novel lipid/MC3 ratio, 6 hr. timepoint, i.m. hEPO (hEPO mRNA) | further results |
| --- | --- | --- | --- | --- | --- | --- | --- | --- | --- | --- | --- | --- | --- | --- | --- | --- | --- | --- | --- | --- | --- |
| CCCCCCCCCOC(=O)CCCN(CCO)CCCCCCCC(=O)OC(CCCCCCCC)CCCCCCCC [Compound 26, Heptadecan-9-yl 8-((2-hydroxyethyl)(4-(nonyloxy)-4-oxobutyl)amino) octanoate] | 6.64 | 97.43% | – | – | 0.16 | 91.9 nm | – | – | – | – | – | – | – | – | – | – | – | – | – | – | pKa ([1]; Table 6): 6.64; pKa [1, 11]: 6.64 ± 0.14; % Encapsulation [2]: 97.4 ± 0.2%; EE [2, 12]: 95.60%; PDI (Polydispersity index) [3]: 0.16 ± 0.03; PDI [3, 12]: 0.120; Lipid Purity ([4]; t = 0): 98.64%; Lipid Purity ([4]; t = 96 h, 25° C.): 97.38%; Lipid Purity ([4]; t = 96 h, 37° C.): 95.72% |
| CCCCCCCCCOC(=O)CCCCCCCN(CCO)CCCCCCCC(=O)OCCCCCCCCC [Compound 138, Dinonyl 8,8′-((2-hydroxyethyl)azanediyl)dioctanoate] | 7.39 | 91.8% | – | – | <0.5 | 179.4 nm | – | – | – | – | – | – | – | – | – | – | – | – | – | – | surface pKa ([1]; LNP, Example 26): > 7; pKa [1, 11]: 7.39 ± 0.07; % Encapsulation [2]: 91.8 ± 0.9%; PDI (Polydispersity index) [3]: 0.14 ± 0.05; % dose remaining Mouse liver tissue, 24 h ([5]; CD-1 mouse liver 24 h after 0.5 mg/kg bolus dose mRNA, n = 5 ± S.D.): 0%; original dose remaining in liver tissue 24 hours post dose ([5]; mice, intravenous): no lipid detected; Lipid Purity ([4]; t = 0): 97.59%; Lipid Purity ([4]; t = 96 h, 25° C.): 98.64%; Lipid Purity ([4]; t = 96 h, 37° C.): 97.82% |
| CCCCCCCC/C=C\COC(=O)CCCCCN(CCO)CCCCCC(=O)OC/C=C\CCCCCCCC [Compound 140, Di((Z)-undec-2-en-1-yl) 6,6′-((2-hydroxyethyl)azanediyl)dihexanoate] | 7.71 | 89.2% | – | – | 0.84 | 120.3 nm | – | – | – | – | – | – | – | – | – | – | – | – | – | – | Fold increase in sC5b-9 levels versus saline (sC5b-9): 0.75 |
